Results taken from ChEMBL document CHEMBL5634092, “Design, synthesis, and biological evaluation of novel HDAC/CD13 dual inhibitors for the treatment of cancer” (Eur J Med Chem, 2023).

Columns and labels:
Histone deacetylase 8 = molecular target: T1, Histone deacetylase 8 (Homo sapiens, UniProt Q9BY41); experiment: Inhibition of human HDAC8 using Boc-Lys (tri-fluoroacetyl)-AMC as substrate incubated for 1 hr followed by substrate addition and further incubated for 2 hrs by fluorescence assay
T1 sequence (Q9BY41 whole entry): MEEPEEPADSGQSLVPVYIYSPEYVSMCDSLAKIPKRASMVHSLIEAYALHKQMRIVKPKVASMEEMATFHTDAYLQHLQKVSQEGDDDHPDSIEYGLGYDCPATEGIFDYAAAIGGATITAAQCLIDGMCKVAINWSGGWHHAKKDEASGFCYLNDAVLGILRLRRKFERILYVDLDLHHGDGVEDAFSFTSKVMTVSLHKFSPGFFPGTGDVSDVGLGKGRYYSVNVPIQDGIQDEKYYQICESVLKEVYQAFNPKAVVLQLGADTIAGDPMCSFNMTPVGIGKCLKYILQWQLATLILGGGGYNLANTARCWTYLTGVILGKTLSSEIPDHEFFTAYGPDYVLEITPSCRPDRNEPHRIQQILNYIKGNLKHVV

[1] = molecular target: T2, Protein deacetylase HDAC6 (Homo sapiens, UniProt Q9UBN7); experiment: Inhibition of human HDAC6 using Boc-Lys (acetyl)-AMC as substrate incubated for 1 hr followed by substrate addition and further incubated for 2 hrs by fluorescence assay
T2 sequence (Q9UBN7 whole entry): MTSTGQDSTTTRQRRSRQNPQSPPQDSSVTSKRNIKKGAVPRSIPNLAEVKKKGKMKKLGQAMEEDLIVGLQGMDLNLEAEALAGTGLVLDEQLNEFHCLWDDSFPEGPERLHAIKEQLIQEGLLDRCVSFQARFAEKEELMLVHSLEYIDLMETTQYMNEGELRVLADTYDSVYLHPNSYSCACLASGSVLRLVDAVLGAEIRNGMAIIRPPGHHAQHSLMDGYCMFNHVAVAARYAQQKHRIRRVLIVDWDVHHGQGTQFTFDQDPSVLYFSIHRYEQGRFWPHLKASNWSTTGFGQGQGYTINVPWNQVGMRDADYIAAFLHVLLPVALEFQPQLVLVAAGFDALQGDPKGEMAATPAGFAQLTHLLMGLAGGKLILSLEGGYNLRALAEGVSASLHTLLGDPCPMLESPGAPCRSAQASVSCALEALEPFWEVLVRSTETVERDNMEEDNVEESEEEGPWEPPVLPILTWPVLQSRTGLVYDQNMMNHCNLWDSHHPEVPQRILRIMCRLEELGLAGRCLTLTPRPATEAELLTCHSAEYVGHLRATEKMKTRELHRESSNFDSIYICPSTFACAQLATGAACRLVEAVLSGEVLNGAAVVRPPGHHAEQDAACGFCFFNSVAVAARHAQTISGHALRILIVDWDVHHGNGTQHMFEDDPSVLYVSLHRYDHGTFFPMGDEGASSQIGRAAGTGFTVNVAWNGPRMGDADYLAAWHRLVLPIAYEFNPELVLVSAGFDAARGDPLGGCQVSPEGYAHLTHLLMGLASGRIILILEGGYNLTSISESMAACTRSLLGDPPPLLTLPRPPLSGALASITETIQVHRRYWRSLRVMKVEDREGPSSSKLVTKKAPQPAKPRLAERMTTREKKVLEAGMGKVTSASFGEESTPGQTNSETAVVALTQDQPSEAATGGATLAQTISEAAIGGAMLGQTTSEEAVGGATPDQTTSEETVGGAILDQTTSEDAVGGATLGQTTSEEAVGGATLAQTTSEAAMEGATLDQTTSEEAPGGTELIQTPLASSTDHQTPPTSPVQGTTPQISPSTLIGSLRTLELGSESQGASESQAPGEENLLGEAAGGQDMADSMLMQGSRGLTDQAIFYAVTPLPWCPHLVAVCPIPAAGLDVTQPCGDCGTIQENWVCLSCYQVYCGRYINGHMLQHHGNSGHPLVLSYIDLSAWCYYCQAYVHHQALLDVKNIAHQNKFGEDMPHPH

Aminopeptidase N [2] = molecular target: T3, Aminopeptidase N (Sus scrofa, UniProt P15145); experiment: Inhibition of porcine kidney CD13 using L-leucine-p-nitroanilide as substrate incubated for 30 mins by microplate reader analysis
T3 sequence (P15145 whole entry): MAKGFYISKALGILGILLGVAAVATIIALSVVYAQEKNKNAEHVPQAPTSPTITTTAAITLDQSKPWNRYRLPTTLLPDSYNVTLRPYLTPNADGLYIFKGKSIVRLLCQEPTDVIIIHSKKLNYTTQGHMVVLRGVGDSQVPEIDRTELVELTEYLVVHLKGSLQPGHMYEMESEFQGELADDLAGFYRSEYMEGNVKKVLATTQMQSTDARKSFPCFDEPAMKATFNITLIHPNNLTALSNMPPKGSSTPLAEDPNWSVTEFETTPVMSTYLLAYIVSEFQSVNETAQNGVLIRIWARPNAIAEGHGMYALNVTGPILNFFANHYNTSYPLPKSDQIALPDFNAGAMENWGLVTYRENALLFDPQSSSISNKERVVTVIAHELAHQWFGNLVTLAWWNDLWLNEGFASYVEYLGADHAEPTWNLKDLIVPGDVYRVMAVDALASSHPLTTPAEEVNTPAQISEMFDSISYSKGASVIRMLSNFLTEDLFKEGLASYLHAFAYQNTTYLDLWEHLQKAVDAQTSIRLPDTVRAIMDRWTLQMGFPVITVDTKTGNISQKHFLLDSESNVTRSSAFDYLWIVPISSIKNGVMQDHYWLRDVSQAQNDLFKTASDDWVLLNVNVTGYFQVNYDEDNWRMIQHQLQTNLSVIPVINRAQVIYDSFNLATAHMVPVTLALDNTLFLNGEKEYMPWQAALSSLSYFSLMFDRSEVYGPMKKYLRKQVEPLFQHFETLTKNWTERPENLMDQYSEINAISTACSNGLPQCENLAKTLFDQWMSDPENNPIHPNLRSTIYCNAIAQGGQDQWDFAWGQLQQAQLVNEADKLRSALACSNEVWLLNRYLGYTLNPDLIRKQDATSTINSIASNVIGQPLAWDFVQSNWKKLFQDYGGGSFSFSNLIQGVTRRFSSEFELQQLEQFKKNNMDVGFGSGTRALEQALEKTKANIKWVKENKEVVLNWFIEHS

Histone deacetylase 3 = Histone deacetylase 3 (Homo sapiens, UniProt O15379); experiment: Inhibition of human HDAC3 using Boc-Lys (acetyl)-AMC as substrate incubated for 1 hr followed by substrate addition and further incubated for 2 hrs by fluorescence assay
Histone deacetylase 2 = Histone deacetylase 2 (Homo sapiens, UniProt Q92769); experiment: Inhibition of human HDAC2 using Boc-Lys (acetyl)-AMC as substrate incubated for 1 hr followed by substrate addition and further incubated for 2 hrs by fluorescence assay
MV4-11 [3] = experiment: Antiproliferative activity against human MV4-11 cells incubated for 48 hrs by resazurin based microplate reader analysis; conditions: MV4-11, 48 h
Histone deacetylase 1 = Histone deacetylase 1 (Homo sapiens, UniProt Q13547); experiment: Inhibition of human HDAC1 using Boc-Lys (acetyl)-AMC as substrate incubated for 1 hr followed by substrate addition and further incubated for 2 hrs by fluorescence assay
Aminopeptidase N [4] = molecular target: Aminopeptidase N (Homo sapiens, UniProt P15144); experiment: Inhibition of human CD13 using L-leucine-p-nitroanilide as substrate incubated for 30 mins by microplate reader analysis
A549 [5] = experiment: Induction of apoptosis in human A549 cells assessed as apoptotic rate at 20 uM incubated for 24 hrs by Annexin V-FITC staining based flow cytometry (reference value: 8.02 %); type: functional
HL-60 = experiment: Antiproliferative activity against human HL-60 cells incubated for 48 hrs by resazurin based microplate reader analysis; conditions: HL-60, 48 h
[6] = Cytotoxicity against human HL7702 cells incubated for 48 hrs by resazurin based microplate reader analysis; conditions: HL7702 (L02) cells
A549 [7] = experiment: Antiproliferative activity against human A549 cells incubated for 48 hrs by resazurin based microplate reader analysis; conditions: A549, 48 h
MV4-11 [8] = experiment: Induction of apoptosis in human MV4-11 cells assessed as apoptotic rate at 2 uM incubated for 24 hrs by Annexin V-FITC staining based flow cytometry (reference value: 24.09 %); type: functional
JeKo-1 = experiment: Antiproliferative activity against human JeKo-1 cells incubated for 48 hrs by resazurin based microplate reader analysis; conditions: JeKo-1, 48 h
BXPC-3 = experiment: Antiproliferative activity against human BXPC-3 cells incubated for 48 hrs by resazurin based microplate reader analysis; conditions: BXPC-3, 48 h
K562 = experiment: Antiproliferative activity against human K562 cells incubated for 48 hrs by resazurin based microplate reader analysis; conditions: K562, 48 h

Chain of Histone deacetylase 3 (O15379 whole entry): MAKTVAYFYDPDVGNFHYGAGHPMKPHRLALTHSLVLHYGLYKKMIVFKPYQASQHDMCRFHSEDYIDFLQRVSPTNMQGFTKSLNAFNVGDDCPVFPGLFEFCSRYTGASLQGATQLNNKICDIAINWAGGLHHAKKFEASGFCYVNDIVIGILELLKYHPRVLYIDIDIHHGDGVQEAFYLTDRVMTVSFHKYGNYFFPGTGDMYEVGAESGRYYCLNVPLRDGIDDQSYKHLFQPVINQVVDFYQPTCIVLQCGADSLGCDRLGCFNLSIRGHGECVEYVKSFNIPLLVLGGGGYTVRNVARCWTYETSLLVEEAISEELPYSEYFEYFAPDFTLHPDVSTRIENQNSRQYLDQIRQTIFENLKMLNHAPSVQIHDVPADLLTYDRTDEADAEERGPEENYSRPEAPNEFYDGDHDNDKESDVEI
Chain of Histone deacetylase 2 (Q92769 whole entry): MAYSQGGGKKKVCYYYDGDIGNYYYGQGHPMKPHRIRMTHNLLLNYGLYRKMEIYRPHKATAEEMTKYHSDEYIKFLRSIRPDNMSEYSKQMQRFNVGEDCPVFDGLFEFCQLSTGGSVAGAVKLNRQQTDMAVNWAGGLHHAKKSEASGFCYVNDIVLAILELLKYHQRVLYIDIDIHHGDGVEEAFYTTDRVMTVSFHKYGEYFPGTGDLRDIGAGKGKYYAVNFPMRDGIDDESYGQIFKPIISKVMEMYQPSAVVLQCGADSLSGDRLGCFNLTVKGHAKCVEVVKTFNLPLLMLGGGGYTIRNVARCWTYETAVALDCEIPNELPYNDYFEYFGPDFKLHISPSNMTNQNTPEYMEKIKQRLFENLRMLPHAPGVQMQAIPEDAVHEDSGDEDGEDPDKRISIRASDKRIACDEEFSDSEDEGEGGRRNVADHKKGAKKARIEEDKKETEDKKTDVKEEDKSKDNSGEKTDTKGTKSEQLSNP
Chain of Histone deacetylase 1 (Q13547 whole entry): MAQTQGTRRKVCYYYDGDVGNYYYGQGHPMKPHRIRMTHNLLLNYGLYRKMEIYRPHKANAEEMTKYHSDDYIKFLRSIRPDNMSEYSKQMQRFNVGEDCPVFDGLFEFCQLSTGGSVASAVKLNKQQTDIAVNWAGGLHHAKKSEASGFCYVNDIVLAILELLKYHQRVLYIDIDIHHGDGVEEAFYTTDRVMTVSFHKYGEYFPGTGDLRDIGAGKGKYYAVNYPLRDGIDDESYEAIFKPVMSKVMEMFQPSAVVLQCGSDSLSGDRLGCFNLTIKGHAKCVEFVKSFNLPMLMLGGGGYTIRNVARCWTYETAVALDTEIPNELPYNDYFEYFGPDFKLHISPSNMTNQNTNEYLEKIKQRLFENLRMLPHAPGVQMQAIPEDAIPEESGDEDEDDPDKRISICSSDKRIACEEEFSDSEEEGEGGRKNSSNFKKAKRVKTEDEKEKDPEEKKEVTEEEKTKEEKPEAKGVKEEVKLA
Chain of Aminopeptidase N (Homo sapiens, UniProt P15144) (P15144 whole entry): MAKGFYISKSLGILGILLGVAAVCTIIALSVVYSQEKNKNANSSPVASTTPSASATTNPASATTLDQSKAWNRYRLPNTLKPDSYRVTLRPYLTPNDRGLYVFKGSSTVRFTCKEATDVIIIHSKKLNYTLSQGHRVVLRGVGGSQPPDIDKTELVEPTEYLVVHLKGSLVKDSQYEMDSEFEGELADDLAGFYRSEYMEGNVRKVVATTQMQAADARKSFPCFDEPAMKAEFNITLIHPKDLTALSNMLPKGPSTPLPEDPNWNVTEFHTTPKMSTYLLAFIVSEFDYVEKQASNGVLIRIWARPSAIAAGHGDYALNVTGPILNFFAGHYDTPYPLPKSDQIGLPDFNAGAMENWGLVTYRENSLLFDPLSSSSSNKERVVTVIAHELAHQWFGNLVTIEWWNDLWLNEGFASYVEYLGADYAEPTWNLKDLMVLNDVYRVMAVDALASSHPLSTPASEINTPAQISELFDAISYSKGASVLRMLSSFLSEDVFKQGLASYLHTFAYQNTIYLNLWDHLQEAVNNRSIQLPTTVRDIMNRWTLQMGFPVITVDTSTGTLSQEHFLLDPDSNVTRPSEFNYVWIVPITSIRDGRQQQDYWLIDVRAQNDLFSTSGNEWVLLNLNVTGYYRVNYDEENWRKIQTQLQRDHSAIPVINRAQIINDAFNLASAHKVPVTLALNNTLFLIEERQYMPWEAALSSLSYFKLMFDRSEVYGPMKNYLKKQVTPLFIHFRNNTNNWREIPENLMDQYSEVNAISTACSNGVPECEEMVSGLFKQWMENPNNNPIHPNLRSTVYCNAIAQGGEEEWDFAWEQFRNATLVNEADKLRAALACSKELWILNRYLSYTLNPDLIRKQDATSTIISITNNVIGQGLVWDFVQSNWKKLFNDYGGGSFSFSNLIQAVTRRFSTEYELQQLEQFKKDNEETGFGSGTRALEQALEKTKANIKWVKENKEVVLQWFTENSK

Row | IC50 (Aminopeptidase N [2]) [nM] | IC50 (Histone deacetylase 3) [nM] | SMILES | further results
1 | 3030 | 90 | CCCNNC(=O)CCCCCNC(=O)[C@H](CC(C)C)NC(=O)[C@@H](O)[C@H](N)Cc1ccccc1 | 
2 | > 20000 |  | O=C(CCCCCCC(=O)Nc1ccccc1)NO [VORINOSTAT] | 
3 | 9530 | 50 | CCCNNC(=O)CCCCCCNC(=O)[C@H](CC(C)C)NC(=O)[C@@H](O)[C@H](N)Cc1ccccc1 | 
4 | 18200 | > 10000 | CCCNNC(=O)[C@H](CC(C)C)NC(=O)[C@@H](O)[C@H](N)Cc1ccccc1 | IC50 (Histone deacetylase 2): > 10000 nM; IC50 (MV4-11 [3]): > 20000 nM; IC50 (Histone deacetylase 1): > 10000 nM

More lines, now with the values behind:

Row | SMILES | IC50 (Aminopeptidase N [2]) [nM] | IC50 (Histone deacetylase 3) [nM] | further results
5 | CC(C)C[C@H](NC(=O)[C@@H](O)[C@H](N)Cc1ccccc1)C(=O)NCc1ccc(C(=O)NO)cc1 | 550 | 1430 | IC50 (Histone deacetylase 8): 1350 nM; IC50 [1]: 330 nM
6 | CCCNNC(=O)c1ccc(CNC(=O)[C@H]2CCCN2C(=O)[C@H](CC(C)C)NC(=O)[C@@H](O)[C@H](N)Cc2ccccc2)cc1 | 2690 |  | 
7 | CC(C)C[C@H](NC(=O)[C@@H](O)[C@H](N)Cc1ccccc1)C(=O)O [UBENIMEX] |  | > 10000 | IC50 (Histone deacetylase 2): > 10000 nM; IC50 (MV4-11 [3]): > 20000 nM; IC50 (Histone deacetylase 1): > 10000 nM
8 | CCCNNC(=O)c1ccc(CNC(=O)[C@H](CC(C)C)NC(=O)[C@@H](NC(=O)[C@@H](O)[C@H](N)Cc2ccccc2)[C@@H](C)CC)cc1 | 400 | 80 | 
9 | CCCNNC(=O)c1ccc(CNC(=O)[C@H](CC(C)C)NC(=O)Nc2c(C)cccc2C)cc1 | > 20000 | 290 | 
10 | CC(C)C[C@H](NC(=O)[C@@H](O)[C@H](N)Cc1ccccc1)C(=O)NCc1ccc(C(=O)Nc2ccccc2N)cc1 | 1630 | 60 | 
11 | CCCNNC(=O)c1ccc(CNC(=O)[C@H](CC(C)C)NC(=O)NCc2cccc3ccccc23)cc1 | > 20000 | 120 | 
12 | CCCNNC(=O)c1ccc(CNC(=O)[C@H](CC(C)C)NC(=O)[C@H](O)[C@@H](N)Cc2ccccc2)cc1 | > 20000 | 60 | IC50 (Aminopeptidase N [4]): > 20000 nM
13 | COC(=O)c1ccc(CNC(=O)[C@H](CC(C)C)NC(=O)[C@@H](O)[C@H](N)Cc2ccccc2)cc1.Cl | 1350 | 2420 | Activity (A549 [5]): 8.31%; IC50 (Aminopeptidase N [4]): 480 nM; IC50 (HL-60): > 20000 nM; IC50 (Histone deacetylase 2): > 10000 nM; IC50 at 48 h [6]: > 100000 nM; IC50 (A549 [7]): > 20000 nM; Activity (MV4-11 [8]): 33.7%; IC50 (JeKo-1): > 20000 nM; IC50 (MV4-11 [3]): > 20000 nM; IC50 (BXPC-3): > 20000 nM; IC50 (Histone deacetylase 1): > 10000 nM; IC50 (K562): > 20000 nM
